Tests used:
Assay type in all cases: cell-based, human
A549 cells = assay: Colony formation assay, A549 cells; settings: for reduction of number of forming colonies: 24 h treatment, 7 days; for reduction of number of forming colonies / decrease of colony size: vs control
Procedure: Colony formation assay was used to confirm the anti-cancer action of resveratrol derivatives, as it is a cell proliferation assay which can detect the ability of a single cell to grow into a colony. NSCLC cells were seeded and treated with RD2 and RD3 (1–200 μM) for 24 h. The treated cells were subjected to colony formation assay for 7 days. The crystal violet-staining colony represented the colony suppression effect of RD2 and RD3 compared to the untreated control (Figure 3a,b). The RD2 compound dramatically abolished the forming colony. Colony number was absent in response to RD2 at the concentrations of 100 and 200 μM, whereas there was no significant response to RD3 (Figure 3a,b).
Cells were seeded at a density of 300 cells/well into 6-well plate and then further treated with various concentrations resveratrol derivatives for 24 h after that the medium was replaced and the cell were incubated for colony number and colony size were investigated after fixing with methanol and acetic acid (3:1) solution and staining with 0.05% w/v crystal violet in 4% formaldehyde.

[1] = test system: p-mTOR/mTOR in A549 cells; assay: Western blot of p-mTOR/mTOR, A549 cells; settings: 12 h
Procedure: (§1) NSCLC cells (A549 and H23) were treated with RD2 and RD3 (10–100 μM) for 12 h. After which, all cells were collected and the expression levels of Akt, p-Akt, mTOR, and p-mTOR were investigated by Western blot analysis (Figure 5a, Figure 6a, Figure 7a and Figure 8a). […] Immunofluorescence staining of Akt, p-Akt, mTOR, and p-mTOR was performed in RD2 and RD3 treated cells. The results further confirm the effect of RD2 and RD3 on the Akt/mTOR pathway.
(§2) Western blotting was used to detect the presence of specific protein. Cells were seed at a density of 4 × 10^5 cells/well in 6 well plates overnight. Cells were treated with various concentrations RD1-RD5 were treated for 12 h. After treatment, the apoptosis cells were collected by centrifuging media with 1500 rpm for 5 min and aspirating supernatants. Then, cells were washed with cold 1× PBS and incubated with 1X RIPPA 40 µL containing 10× RIPA buffer 100 µL, protease inhibitors (PI) 100 µL, PMSF 10 µL, and Triton × 10 µL for 30 min on ice. BCA protein assay kit from Pierce Biotechnology (Rockford, IL, USA) analyzed protein concentrations. The extracted proteins were separated by 7.5–10% sodium dodecyl sulfate polyacrylamide gel electrophoresis (SDS-PAGE) and transferred to polyvinylidene difluoride membrane (PVDF). Then, the membranes were blocked with 5% non-fat milk powder for 2 h. After that, they were incubated with primary antibody at 4 °C Akt (#9272), phosphorylated Akt (#4060), mTOR (#2983S), and p-mTOR (#5536S) overnight. The membranes were washed with Tris-buffered saline/Tween 20 3 times and incubated with secondary antibodies for 2 h. Finally, the protein bands were detected using chemiluminescence substrate and exposed by Chemiluminescent ImageQuant LAS4000. Protein bands were analyzed using Image J software.

p-Akt/Akt in A549 cells = assay: Western blot of p-Akt/Akt, A549 cells; settings: 12 h
Procedure: as §1, §2

p-Akt in H23 cells = assay: Immunofluorescence staining of p-Akt, H23 cells; settings: 10–100 µM, vs untreated control
Procedure: as §1
(§3) Cells were seeded at a density of 1 × 10^4 cells/well in 6-well plates overnight. Cells were treated with various concentrations resveratrol derivatives ([…]) and were treated for 12 h. Then, they were fixed with 4% paraformaldehyde in PBS for 15 min, permeabilized for 5 min with 0.5% Triton-X, and blocked with 0.1% Triton-X in 10% FBD in PBS for 1 h at room temperature. Cells were added to the primary antibody Akt (#9272), phosphorylated Akt (#4060), mTOR (#2983S), and p-mTOR (#5536S). Then, they were incubated at 4 °C overnight. After that, they were incubated with secondary antibody for 1 h and stained with Hoechst 33342 for 30 min at room temperature in a dark place. The images were visualized under a fluorescent microscope (Olympus DP70, Melville, NY, USA) and analyzed by The ImageJ software.

p-Akt in A549 cells = assay: Immunofluorescence staining of p-Akt, A549 cells; settings: 10–100 µM, vs untreated control
Procedure: as §1, §3

COc1cc(CCc2ccc(O)c(OC)c2)ccc1O [RD2, 4,4′-(ethane-1,2-diyl)bis(2-methoxyphenol)]
reduction of number of forming colonies (A549 cells; 10 μM): 31.04%
reduction of number of forming colonies (A549 cells; 100 μM): 98.18%
decrease of colony size (A549 cells; 100 μM): 71.66%
reduction of number of forming colonies (A549 cells; 200 μM): 99.40%
decrease of colony size (A549 cells; 200 μM): 85.42%
p-mTOR/mTOR protein expression levels ([1]; 100 μM, vs untreated control): significant decrease
p-Akt/Akt protein expression levels (p-Akt/Akt in A549 cells; A549 cells, 50 μM, vs untreated control): significant decrease
p-Akt/Akt protein expression levels (p-Akt/Akt in A549 cells; A549 cells, 100 μM, vs untreated control): significant decrease

COc1ccc(CCc2ccc(O)c(OC)c2)cc1O [RD3, 4-(3-hydroxy-4-methoxyphenethyl)-2-methoxyphenol]
p-Akt intensity (p-Akt in H23 cells): significantly increased
reduction of number of forming colonies (A549 cells; 10 μM): 20.44%
reduction of number of forming colonies (A549 cells; 100 μM): 21.94%
reduction of number of forming colonies (A549 cells; 200 μM): 38.91%
effect on colony size (A549 cells; 10–200 μM): no significant effect
p-Akt intensity (p-Akt in A549 cells): significantly increased
p-mTOR/mTOR protein expression levels ([1]; 10–100 μM): no effect
p-Akt/Akt protein expression levels (p-Akt/Akt in A549 cells; A549 cell, 10–200 μM): increased

— paper PMC9739815, “Akt/mTOR Targeting Activity of Resveratrol Derivatives in Non-Small Lung Cancer” (Molecules, 2022)
